pIC50: −log10 of the molar value.
Assays:
Cavia porcellus = species on record: Cavia porcellus; assay: Selectivity ratio between CCK-B and CCK-A receptor; design: reference not given here
[1] = molecular target: T1, Cholecystokinin receptor type A (Rattus norvegicus, UniProt P30551); assay: Inhibition of binding of [125I]CCK-8 to cholecystokinin type A receptor in rat pancreatic tissue
T1 sequence (P30551 whole entry): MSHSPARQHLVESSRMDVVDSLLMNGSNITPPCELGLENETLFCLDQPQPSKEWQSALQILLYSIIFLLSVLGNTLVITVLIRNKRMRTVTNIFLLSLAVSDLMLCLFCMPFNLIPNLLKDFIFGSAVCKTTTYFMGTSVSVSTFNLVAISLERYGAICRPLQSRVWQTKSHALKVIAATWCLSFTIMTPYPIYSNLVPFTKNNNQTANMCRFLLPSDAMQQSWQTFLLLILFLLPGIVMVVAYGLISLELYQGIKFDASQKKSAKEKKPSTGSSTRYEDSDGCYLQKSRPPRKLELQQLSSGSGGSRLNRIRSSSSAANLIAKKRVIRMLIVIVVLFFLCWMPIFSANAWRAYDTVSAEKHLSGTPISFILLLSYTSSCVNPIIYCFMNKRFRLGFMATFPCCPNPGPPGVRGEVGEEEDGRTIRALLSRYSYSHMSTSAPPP

| SMILES | Selectivity ratio (Cavia porcellus) | pIC50 [1] |
| --- | --- | --- |
| Cc1cc(C)cc(NC(=O)NC2N=C(c3ccccc3)c3ccccc3N(C)C2=O)c1 (stereo not given) | 2.7 | 6.14 |
| COC(=O)Cc1cccc(NC(=O)NC2N=C(c3ccccc3)c3ccccc3N(C)C2=O)c1 (stereo not given) | 64 | 5.68 |
| CN1C(=O)C(NC(=O)Nc2ccc3ccccc3n2)N=C(c2ccccc2)c2ccccc21 (stereo not given) | 7 | 6.74 |
| Cc1ccc(NC(=O)NC2N=C(c3ccccc3)c3ccccc3N(C)C2=O)cc1C (stereo not given) | 14 | 6.51 |
| CN1C(=O)C(NC(=O)Nc2ccc(C(F)(F)F)cc2)N=C(c2ccccc2)c2ccccc21 (stereo not given) | 228 | 5.89 |
| CN1C(=O)C(NC(=O)Nc2ccc3c(c2)CCC3)N=C(c2ccccc2)c2ccccc21 (stereo not given) | 333 | 6.05 |
| CN1C(=O)C(NC(=O)Nc2cccc(C#N)c2)N=C(c2ccccc2)c2ccccc21 (stereo not given) | 115 | 5.51 |
| CN1C(=O)C(NC(=O)Nc2cccc(CC(=O)O)c2)N=C(c2ccccc2)c2ccccc21 (stereo not given) | 12 | 7.21 |
| CN1C(=O)C(NC(=O)Nc2ccc(N)nc2)N=C(c2ccccc2)c2ccccc21 (stereo not given) | 6 | 5.52 |
| CN1C(=O)[C@H](NC(=O)Nc2ccc(Cl)cc2)N=C(c2ccccc2)c2ccccc21 | 112 | 5.66 |
| O=C(Nc1ccc(Cl)cc1)N[C@H]1N=C(c2ccccc2)c2ccccc2N(CC(=O)N2CCCC2)C1=O | 192 | 5.60 |
| CN1C(=O)[C@@H](NC(=O)c2ccc(C(F)(F)F)cc2)N=C(c2ccccc2)c2ccccc21 | 0.3 | 5.89 |
| O=C(Nc1ccc(Cl)cc1)N[C@@H]1N=C(c2ccccc2)c2ccccc2N(CC(=O)N2CCCC2)C1=O | 643 | 6.05 |
| CN1C(=O)[C@@H](NC(=O)Nc2ccccc2Cl)N=C(c2ccccc2)c2ccccc21 | < 0.01 | 9.59 |
| Cc1cccc(NC(=O)N[C@@H]2N=C(c3ccccc3)c3ccccc3NC2=O)c1 | 95 | 5.42 |
| CN1C(=O)[C@H](NC(=O)Nc2ccccc2Cl)N=C(c2ccccc2)c2ccccc21 | 6.7 | 6.39 |
| CN1C(=O)[C@H](NC(=O)Nc2cccc(N)c2)N=C(c2ccccc2)c2ccccc21 | 131 | 5.36 |
| CC(=O)Oc1cccc(NC(=O)N[C@@H]2N=C(c3ccccc3)c3ccccc3N(C)C2=O)c1 | 13 | 5.18 |
| CN1C(=O)[C@H](NC(=O)NCc2cccc(O)c2)N=C(c2ccccc2)c2ccccc21 | 1 | 7.68 |
| C=Cc1cccc(NC(=O)N[C@@H]2N=C(c3ccccc3)c3ccccc3N(C)C2=O)c1 | 48 | 5.78 |
| CN1C(=O)[C@H](NC(=O)Nc2cccc(O)c2)N=C(c2ccccc2)c2ccccc21 | 1 | 7.22 |
| CN1C(=O)[C@H](NC(=O)Nc2cccc(CN)c2)N=C(c2ccccc2)c2ccccc21 | 0.22 | 6.80 |
| CC(=O)c1cccc(NC(=O)NC2N=C(c3ccccc3)c3ccccc3N(C)C2=O)c1 (stereo not given) | 361 | 5.89 |
| CN1C(=O)C(NC(=O)Nc2cccc(CNC(=O)OC(C)(C)C)c2)N=C(c2ccccc2)c2ccccc21 (stereo not given) | 1 | 6.70 |

| SMILES | Selectivity ratio (Cavia porcellus) | pIC50 [1] |
| --- | --- | --- |
| COc1ccc(NC(=O)NC2N=C(c3ccccc3)c3ccccc3N(C)C2=O)cn1 (stereo not given) | 6.3 | 5.54 |
| CN1C(=O)[C@@H](NC(=O)Nc2ccc(Cl)cc2)N=C(c2ccccc2)c2ccccc21 | 0.1 | 6.96 |
| CN1C(=O)C(NC(=O)NCc2cccc(C(C)(C)O)c2)N=C(c2ccccc2)c2ccccc21 (stereo not given) | 69 | 6.39 |
| C#Cc1cccc(NC(=O)NC2N=C(c3ccccc3)c3ccccc3N(C)C2=O)c1 (stereo not given) | 18 | 6.40 |
| CN1C(=O)[C@H](NC(=O)Nc2cccc(I)c2)N=C(c2ccccc2)c2ccccc21 | 116 | 6.10 |
| Cc1cccc(NC(=O)N[C@H]2N=C(c3ccccc3)c3ccccc3N(C)C2=O)c1 |  | 8.33 |
| Cc1cccc(NC(=O)NC2N=C(c3ccccn3)c3ccccc3N(C)C2=O)c1 (stereo not given) | 1 | 7.19 |
| COC(=O)c1cccc(NC(=O)N[C@@H]2N=C(c3ccccc3)c3ccccc3N(C)C2=O)c1 | 150 | 5.92 |
| CN1C(=O)C(NC(=O)Nc2ccc(F)cc2)N=C(c2ccccc2)c2ccccc21 (stereo not given) | 0.7 |  |
| CN1C(=O)[C@H](NC(=O)Nc2cccc(Br)c2)N=C(c2ccccc2)c2ccccc21 | 221 |  |
| CN1C(=O)[C@H](NC(=O)Nc2cccc(Cl)c2)N=C(c2ccccc2)c2ccccc21 | 39 |  |
| CN1C(=O)[C@H](NC(=O)c2ccc(C(F)(F)F)cc2)N=C(c2ccccc2)c2ccccc21 | 35 |  |
| COc1cccc(NC(=O)N[C@@H]2N=C(c3ccccc3)c3ccccc3N(C)C2=O)c1 | 272 |  |
| COc1cccc(NC(=O)N[C@H]2N=C(c3ccccc3)c3ccccc3N(C)C2=O)c1 | < 0.01 |  |
| CCOC(=O)CN1C(=O)C(NC(=O)N[C@@H](C)c2ccccc2)N=C(c2ccccc2)c2ccccc21 (mixture of isomers) | < 48 | 5.32 |
| C[C@H](NC(=O)NC1N=C(c2ccccc2)c2ccccc2N(C)C1=O)c1ccccc1 (mixture of isomers) | 0.04 | 6.37 |
| COC(=O)[C@H]1CCCN1OC(=O)CN1C(=O)C(NC(=O)Nc2cccc(OC)c2)N=C(c2ccccc2)c2ccccc21 (mixture of isomers) | 144 | 5.85 |
| O=C(Nc1ccc(Cl)cc1)NC1N=C(c2ccccc2)c2ccccc2N(Cc2nnn[nH]2)C1=O (racemic) |  | 5.68 |
| CN1C(=O)C(NC(=O)Nc2ccc(C(=O)O)cc2)N=C(c2ccccc2)c2ccccc21 (racemic) |  | < 5.00 |
| CCN(CC)C(=O)CN1C(=O)C(NC(=O)Nc2ccc(Cl)cc2)N=C(c2ccccc2)c2ccccc21 (racemic) | 667 |  |
| CCNC(=O)CN1C(=O)C(NC(=O)Nc2ccc(Cl)cc2)N=C(c2ccccc2)c2ccccc21 (racemic) | 191 |  |
| CCOC(=O)CCN1C(=O)C(NC(=O)Nc2ccc(Cl)cc2)N=C(c2ccccc2)c2ccccc21 (racemic) | 204 |  |
| CCOC(=O)CN1C(=O)C(NC(=O)Nc2ccc(Cl)cc2)N=C(c2ccccc2)c2ccccc21 (racemic) | 370 |  |
| CCOC(=O)CN1C(=O)C(NC(=O)c2ccccc2Cl)N=C(c2ccccc2F)c2ccccc21 (racemic) | > 9 |  |

| SMILES | Selectivity ratio (Cavia porcellus) | pIC50 [1] |
| --- | --- | --- |
| CN1C(=O)C(NC(=O)NC(C)(C)C)N=C(c2ccccc2)c2ccccc21 (racemic) | 0.2 |  |
| CN1C(=O)C(NC(=O)NC2CCCCC2)N=C(c2ccccc2)c2ccccc21 (racemic) | 0.8 |  |
| CN1C(=O)C(NC(=O)NCc2ccccc2)N=C(c2ccccc2)c2ccccc21 (racemic) | 0.6 |  |
| CN1C(=O)C(NC(=O)Nc2ccc(Br)cc2)N=C(c2ccccc2)c2ccccc21 (racemic) | 2.7 |  |
| CN1C(=O)C(NC(=O)Nc2ccc(Cl)c(Cl)c2)N=C(c2ccccc2)c2ccccc21 (racemic) | 0.4 |  |
| CN1C(=O)C(NC(=O)Nc2ccc(Cl)cc2Cl)N=C(c2ccccc2)c2ccccc21 (racemic) | 0.01 |  |
| CN1C(=O)C(NC(=O)Nc2ccc([N+](=O)[O-])cc2)N=C(c2ccccc2)c2ccccc21 (racemic) | 4.5 |  |
| CN1C(=O)C(NC(=O)Nc2cccc(Br)c2)N=C(c2ccccc2)c2ccccc21 (racemic) | 1 |  |
| CN1C(=O)C(NC(=O)Nc2cccc(Cl)c2)N=C(c2ccccc2)c2ccccc21 (racemic) | 1 |  |
| CN1C(=O)C(NC(=O)Nc2cccc(F)c2)N=C(c2ccccc2)c2ccccc21 (racemic) | 0.2 |  |
| CN1C(=O)C(NC(=O)Nc2cccc([N+](=O)[O-])c2)N=C(c2ccccc2)c2ccccc21 (racemic) | 3 |  |
| CN1C(=O)C(NC(=O)Nc2ccccc2)N=C(c2ccccc2)c2ccccc21 (racemic) | 0.26 |  |
| CN1C(=O)C(NC(=O)Nc2ccccc2[N+](=O)[O-])N=C(c2ccccc2)c2ccccc21 (racemic) | < 0.01 |  |
| CN1CCN(C(=O)CN2C(=O)C(NC(=O)Nc3ccc(Cl)cc3)N=C(c3ccccc3)c3ccccc32)CC1 (racemic) | 1500 |  |
| COc1cc(NC(=O)NC2N=C(c3ccccc3)c3ccccc3N(C)C2=O)cc(OC)c1 (racemic) | 0.1 |  |
| COc1cccc(NC(=O)NC2N=C(c3ccccc3)c3ccccc3N(C)C2=O)c1 (racemic) | 2 |  |
| COc1ccccc1NC(=O)NC1N=C(c2ccccc2)c2ccccc2N(C)C1=O (racemic) | 0.5 |  |
| Cc1cccc(NC(=O)NC2N=C(c3ccccc3)c3ccccc3N(Cc3c[nH]cn3)C2=O)c1 (racemic) | 1 |  |
| Cc1cccc(NC(=O)NC2N=C(c3ccccc3)c3ccccc3N(Cc3ncc[nH]3)C2=O)c1 (racemic) | 4 |  |
| O=C(CN1C(=O)C(NC(=O)Nc2ccc(Cl)cc2)N=C(c2ccccc2)c2ccccc21)NCc1ccccc1 (racemic) | 24 |  |
| O=C(Nc1ccc(Cl)cc1)NC1N=C(c2ccccc2)c2ccccc2N(CC(=O)OCc2ccccc2)C1=O (racemic) | 30 |  |
| O=C(Nc1ccc(Cl)cc1)NC1N=C(c2ccccc2)c2ccccc2N(Cc2nn[nH]n2)C1=O (racemic) | 4 |  |
| O=C(O)CN1C(=O)C(NC(=O)Nc2ccc(Cl)cc2)N=C(c2ccccc2)c2ccccc21 (racemic) | 0.77 |  |
